In US20110237658A1, “COMPOUND AND METHOD FOR THE TREATMENT OF PAIN” (KRISHANI BIOSCIENCES (P) LTD, priority 2010, published 2011):

Tested on: spinal nerve ligation model for neuropathic pain in rats
Assay: Spinal nerve ligation (Chung) model of neuropathic pain, Von Frey test
Format: in vivo
Conditions: 150 mg/kg IP once daily from study day 14 to 21; 2 hours post-treatment on study days 14 and 21; male SD rats
Description: Experimental animals were male SD rats with a starting weight of 230-250 grams. Total number of animals were n=90 for surgery and n=60 after selection. The animals were caged in groups of 3 in a temperature and humidity controlled area. They were maintained on a 12 hr light/dark cycle and had ad libitum access to food and water.
Neuropathic pain inducement was done by following principles of Chung induced model. The SD rats were anesthetized using ketamine/xylazine sodium. The rats were shaved and placed in prone position for surgery. The L5-L6 spinal nerves were surgically litigated. The rats were returned to their cages for recuperation and recovery under comfortable warm conditions using heat lamps.
After seven days of surgery a pre selection was performed. Animals that indicate signs of post operative pain were to be selected to proceed. Pain is detected by observing when one or more of the criteria are met as follows. Licking of the operated paw, accompanied by gentle biting or pulling on the nails with the mouth; placing the leg in the air; bearing weight on the side contra-lateral to the nerve injury; deformities of the hind paw and abnormal posture and walking; weakness of the left hind paw. […] However, the animal must be able to move its leg to ensure that the L4 spinal nerve is intact. If the animal cannot move its leg, it was excluded from the study. […]

## CC(OC(=O)CCCC[C@@H]1CCSS1)OC(=O)NC(C)C(C)COC(=O)c1ccccc1 (stereo partly shown) [final compound of formula 1]
  efficacy as reflected in the parameters of mechanical allodynia (Von Frey): effective
